Test results from patent US20260285866A1, “MODULATORS OF TRPML, THEIR COMPOSITIONS AND METHODS OF USE” (Caraway Therapeutics, Inc., priority 2024, published 2026).

Assays:
[1] = molecular target: Human TRPML1 (Homo sapiens, UniProt Q9GZU1, L15A/L16A/L577A/L578A); experiment: Fluorescent TRPML1 assay (Fluo4-AM, HEK-293 Trex cells expressing hTRPML1); format: cell-based; conditions: fluorescent calcium assay, doxycycline-induced hTRPML1
Procedure: Example 27. Fluorescent TRPML Assays
(§1) HEK-293 Trex cells were stably transfected with a construct consisting of the human coding sequence for TRPML1 cloned into the tet-inducible plasmid pCDNA5 T/O. Mutations were introduced into the TRPML1 sequence to facilitate expression on the cell surface (Silvia Vergarajauregui, Rosa Puertollano Traffic. 2006 March; 7(3): 337-353). Briefly, the cells are cultured in 150 mm round tissue culture dishes containing 20 mL of media. The day before the assay the cells are rinsed with DPBS-Ca-Mg and then treated briefly with Trypsin-EDTA. The Trypsin-EDTA is diluted with growth media, and cells are counted. 38×10^6 cells are re-plated into 150 mm round tissue culture dishes in media containing 0.5 μg/mL doxycycline to induce expression of hTRPML1.
(§2) The day of the experiment cells are lifted from the plates as above and collected by centrifugation. The cells are then suspended in dye loading buffer consisting of Ringer's solution supplemented with 0.1% Pluronic Acid and 1 micromolar Fluo4-AM dye. Cells are loaded for ~60 minutes in the dark with occasional mixing. The cells are collected by centrifugation, the loading media aspirated, and the cells resuspended in 25 mL Ringer's solution and incubated ~60 minutes in the dark. The cells are again collected by centrifugation, rinsed in Ringer's Solution and resuspended to 0.2×10^6 cells/mL in modified Ringer's solution containing 10 mM calcium.
(§3) Compounds are dissolved to a concentration of 10 millimolar with DMSO. Compound plates are created by dispensing compounds into 384 well black wall clear bottom plates (Greiner 781091). Positive and negative controls are included on each plate. Typically, different amounts of each compound are tested ranging from 100 nanoMoles (20 micromolar final concentration) decreasing in half-log steps to 31 picoMoles (6 nanomolar final concentration). Each concentration is typically tested in triplicate.
(§4) 50 microliters of dye-loaded cells are dispensed into each well of the compound assay plate created above. The fluorescence in each well is then determined with an excitation wavelength of 480 nm and an emission wavelength of 540 nm using either a Molecular Devices SpectraMax multimode plate reader or a Hamamatsu FDSS/uCell plate imager.
(§5) The resulting fluorescence for each well is exported as an ascii file and loaded into our LIMS for analysis. The percent activity of each compound at each concentration is determined by comparison to the positive and negative control wells included in each plate.
(§6) EC50 values were calculated using a non-linear regression of Prism. In the table, “A” indicates an EC50 of less than 100 nM, “B” indicates an EC50 range from 100 nM to 500 nM: “C” indicates an EC50 range from 500 nM to 2 μM; and “D” indicates an EC50 greater than 2 μM.

[2] = molecular target: T1, Human TRPML3 (Homo sapiens, UniProt Q8TDD5); experiment: Fluorescent TRPML3 assay (as for TRPML1); format: cell-based; conditions: fluorescent calcium assay as for TRPML1, TRPML3 subtype
T1 construct: expressed in transfected cells
T1 sequence (Q8TDD5 1-553): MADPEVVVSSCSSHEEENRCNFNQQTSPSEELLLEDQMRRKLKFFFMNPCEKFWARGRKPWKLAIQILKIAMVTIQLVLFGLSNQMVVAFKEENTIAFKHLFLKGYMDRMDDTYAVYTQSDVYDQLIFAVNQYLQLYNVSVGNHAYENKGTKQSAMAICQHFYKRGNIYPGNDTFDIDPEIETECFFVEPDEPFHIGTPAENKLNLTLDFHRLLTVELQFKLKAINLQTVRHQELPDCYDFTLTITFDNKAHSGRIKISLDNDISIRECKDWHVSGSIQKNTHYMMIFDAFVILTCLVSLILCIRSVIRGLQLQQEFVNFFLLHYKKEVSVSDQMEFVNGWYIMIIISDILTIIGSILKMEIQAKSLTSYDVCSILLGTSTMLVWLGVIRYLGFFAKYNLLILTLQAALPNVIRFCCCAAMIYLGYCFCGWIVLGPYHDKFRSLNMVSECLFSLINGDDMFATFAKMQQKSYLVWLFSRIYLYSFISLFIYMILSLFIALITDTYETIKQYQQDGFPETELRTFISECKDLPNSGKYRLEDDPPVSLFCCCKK
Procedure: as §1, §2, §3, §4, §5
Assays for TRPML2 and TRPML3 were performed as above for TRPML1, by substituting the appropriate TRPML2 or TRPML3 subtype for the TRPML1.
as §6

Chain of Human TRPML1 (Q9GZU1 whole entry L15A/L16A/L577A/L578A): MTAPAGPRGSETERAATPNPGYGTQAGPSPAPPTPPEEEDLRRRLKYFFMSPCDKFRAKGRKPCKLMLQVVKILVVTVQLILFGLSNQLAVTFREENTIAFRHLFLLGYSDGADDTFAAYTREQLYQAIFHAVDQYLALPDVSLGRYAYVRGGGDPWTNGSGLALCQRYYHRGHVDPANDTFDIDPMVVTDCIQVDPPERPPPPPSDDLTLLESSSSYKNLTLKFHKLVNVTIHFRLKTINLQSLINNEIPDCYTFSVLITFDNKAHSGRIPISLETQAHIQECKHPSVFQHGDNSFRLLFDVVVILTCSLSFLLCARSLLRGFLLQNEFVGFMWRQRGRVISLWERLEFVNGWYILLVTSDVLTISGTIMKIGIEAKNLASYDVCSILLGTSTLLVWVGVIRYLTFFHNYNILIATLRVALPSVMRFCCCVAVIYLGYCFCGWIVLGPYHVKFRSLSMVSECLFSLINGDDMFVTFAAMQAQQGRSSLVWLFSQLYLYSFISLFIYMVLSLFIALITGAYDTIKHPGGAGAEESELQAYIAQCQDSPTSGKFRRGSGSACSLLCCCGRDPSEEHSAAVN

| Structure (SMILES) | EC50 [1] [nM] | EC50 [2] [nM] |
| --- | --- | --- |
| C[C@@H]1CN(c2ncnc3c2c(N2CCC2)cn3-c2cc(C#N)ccn2)[C@@H](C)CN1C(=O)C(C)(C)O [Compound 107, 2-(5-(azetidin-1-yl)-4-((2S,5R)-4-(2-hydroxy-2-methylpropanoyl)-2,5-dimethylpiperazin-1-yl)-7H-pyrrolo[2,3-d]pyrimidin-7-yl)isonicotinonitrile] | 100 to 500 | > 2000 |
| C[C@@H]1CN(c2ncnc3c2c(-c2ccno2)cn3-c2cc(C#N)ccn2)[C@@H](C)CN1C(=O)C(C)(C)O [Compound 152] | 500 to 2000 | > 2000 |
| C[C@@H]1CN(c2ncnc3c2c(C2CC2)cn3-c2cc(C#N)ccn2)[C@@H](C)CN1C(=O)CC(C)(C)O [Compound 160, 2-(5-cyclopropyl-4-((2S,5R)-4-(3-hydroxy-3-methylbutanoyl)-2,5-dimethylpiperazin-1-yl)-7H-pyrrolo[2,3-d]pyrimidin-7-yl)isonicotinonitrile] | 500 to 2000 | 500 to 2000 |
| C[C@@H]1CN(c2ncnc3c2c(-c2ccccc2)cn3-c2cc(C#N)ccn2)[C@@H](C)CN1C(=O)C1(O)CC1 [Compound 156, 2-(4-((2S,5R)-4-(1-hydroxycyclopropane-1-carbonyl)-2,5-dimethylpiperazin-1-yl)-5-phenyl-7H-pyrrolo[2,3-d]pyrimidin-7-yl)isonicotinonitrile] | 500 to 2000 | > 2000 |
| C[C@@H]1CN(c2nccc3c2c(-c2ccncc2)cn3-c2cccc(Cl)c2)[C@@H](C)CN1C(=O)C(C)(C)O [Compound 142, 1-((2R,5S)-4-(1-(3-chlorophenyl)-3-(pyridin-4-yl)-1H-pyrrolo[3,2-c]pyridin-4-yl)-2,5-dimethylpiperazin-1-yl)-2-hydroxy-2-methylpropan-1-one] | 500 to 2000 | > 2000 |
| C[C@H]1CN(c2ncnc3c2c(-c2ccccc2F)cn3-c2cc(C#N)ccn2)[C@@H](C)CN1C(=O)C(C)(C)O [Compound 169, 2-(5-(2-fluorophenyl)-4-((2S,5S)-4-(2-hydroxy-2-methylpropanoyl)-2,5-dimethylpiperazin-1-yl)-7H-pyrrolo[2,3-d]pyrimidin-7-yl)isonicotinonitrile] | 500 to 2000 | > 2000 |
| C[C@@H]1CN(c2ncnc3c2c(-c2ccccc2)cn3-c2cc(C#N)ccn2)[C@@H](C)CN1C(=O)C(C)(C)O [Compound 101, 2-(4-((2S,5R)-4-(2-hydroxy-2-methylpropanoyl)-2,5-dimethylpiperazin-1-yl)-5-phenyl-7H-pyrrolo[2,3-d]pyrimidin-7-yl)isonicotinonitrile] | < 100 | 500 to 2000 |
| C[C@@H]1CN(c2ncnc3c2c(-c2ncco2)cn3-c2cc(C#N)ccn2)[C@@H](C)CN1C(=O)C(C)(C)O [Compound 134, 2-(4-((2S,5R)-4-(2-hydroxy-2-methylpropanoyl)-2,5-dimethylpiperazin-1-yl)-5-(oxazol-2-yl)-7H-pyrrolo[2,3-d]pyrimidin-7-yl)isonicotinonitrile] | 500 to 2000 | > 2000 |
| C[C@@H]1CN(c2ncnc3c2c(-c2ccccc2)cn3-c2cc(C#N)ccn2)[C@@H](C)CN1C(=O)C1(O)CN(C)C1 [Compound 130, 2-(4-((2S,5R)-4-(3-hydroxy-1-methylazetidine-3-carbonyl)-2,5-dimethylpiperazin-1-yl)-5-phenyl-7H-pyrrolo[2,3-d]pyrimidin-7-yl)isonicotinonitrile] | 500 to 2000 | > 2000 |
| C[C@@H]1CN(c2ncnc3c2c(-c2ccns2)cn3-c2cc(C#N)ccn2)[C@@H](C)CN1C(=O)C(C)(C)O [Compound 153, 2-(4-((2S,5R)-4-(2-hydroxy-2-methylpropanoyl)-2,5-dimethylpiperazin-1-yl)-5-(isothiazol-5-yl)-7H-pyrrolo[2,3-d]pyrimidin-7-yl)isonicotinonitrile] | 500 to 2000 | 500 to 2000 |
| C[C@H]1CN(C(=O)C2(O)CCC2)CCN1c1ncnc2c1c(-c1ccccc1F)cn2-c1cc(C#N)ccn1 [Compound 117, (S)-2-(5-(2-fluorophenyl)-4-(4-(1-hydroxycyclobutane-1-carbonyl)-2-methylpiperazin-1-yl)-7H-pyrrolo[2,3-d]pyrimidin-7-yl)isonicotinonitrile] | 500 to 2000 | 500 to 2000 |
| C[C@@H]1CN(c2ncnc3c2c(-n2ccnc2)cn3-c2cc(C#N)ccn2)[C@@H](C)CN1C(=O)C(C)(C)O [Compound 132, 2-(4-((2S,5R)-4-(2-hydroxy-2-methylpropanoyl)-2,5-dimethylpiperazin-1-yl)-5-(1H-imidazol-1-yl)-7H-pyrrolo[2,3-d]pyrimidin-7-yl)isonicotinonitrile] | > 2000 | > 2000 |
| CC(C)[C@H]1CN(C(=O)C(C)(C)O)[C@H](C)CN1c1ncnc2c1c(-c1ccccc1)cn2-c1cc(C#N)ccn1 [Compound 131, 2-(4-((2S,5R)-4-(2-hydroxy-2-methylpropanoyl)-2-isopropyl-5-methylpiperazin-1-yl)-5-phenyl-7H-pyrrolo[2,3-d]pyrimidin-7-yl)isonicotinonitrile] | 100 to 500 | 500 to 2000 |
| C[C@@H]1CN(c2ncnc3c2c(-c2cocn2)cn3-c2cc(C#N)ccn2)[C@@H](C)CN1C(=O)C(C)(C)O [Compound 126, 2-(4-((2S,5R)-4-(2-hydroxy-2-methylpropanoyl)-2,5-dimethylpiperazin-1-yl)-5-(oxazol-4-yl)-7H-pyrrolo[2,3-d]pyrimidin-7-yl)isonicotinonitrile] | 500 to 2000 | > 2000 |
| C[C@H]1CN(C(=O)C(C)(C)O)[C@H](CO)CN1c1ncnc2c1c(-c1ccccc1F)cn2-c1cc(C#N)ccn1 [Compound 168, 2-(5-(2-fluorophenyl)-4-((2S,5S)-4-(2-hydroxy-2-methylpropanoyl)-5-(hydroxymethyl)-2-methylpiperazin-1-yl)-7H-pyrrolo[2,3-d]pyrimidin-7-yl)isonicotinonitrile] | 500 to 2000 | > 2000 |
| C[C@@H]1CN(c2nccc3c2c(-c2ccncc2)cn3-c2cccc(C#N)c2)[C@@H](C)CN1C(=O)C(C)(C)O [Compound 145, 3-(4-((2S,5R)-4-(2-hydroxy-2-methylpropanoyl)-2,5-dimethylpiperazin-1-yl)-3-(pyridin-4-yl)-1H-pyrrolo[3,2-c]pyridin-1-yl)benzonitrile] | > 2000 | > 2000 |
| C[C@@H]1CN(c2ncnc3c2c(-c2ccncc2)cn3-c2cccc(Cl)c2)[C@@H](C)CN1C(=O)C(C)(C)O [Compound 137, 1-((2R,5S)-4-(7-(3-chlorophenyl)-5-(pyridin-4-yl)-7H-pyrrolo[2,3-d]pyrimidin-4-yl)-2,5-dimethylpiperazin-1-yl)-2-hydroxy-2-methylpropan-1-one] | 500 to 2000 | > 2000 |
| C[C@@H]1CN(c2ncnc3c2c(-c2ccccc2)cn3-c2cc(C#N)ccn2)[C@@H](C)CN1C(=O)C1(O)CCC1 [Compound 109, 2-(4-((2S,5R)-4-(1-hydroxycyclobutane-1-carbonyl)-2,5-dimethylpiperazin-1-yl)-5-phenyl-7H-pyrrolo[2,3-d]pyrimidin-7-yl)isonicotinonitrile] | < 100 | 500 to 2000 |
| C[C@@H]1CN(c2ncnc3c2c(-c2ccccc2F)cn3-c2cc(C#N)ccn2)[C@@H](C)CN1C(=O)C1(O)CC1 [Compound 157, 2-(5-(2-fluorophenyl)-4-((2S,5R)-4-(1-hydroxycyclopropane-1-carbonyl)-2,5-dimethylpiperazin-1-yl)-7H-pyrrolo[2,3-d]pyrimidin-7-yl)isonicotinonitrile] | > 2000 | > 2000 |
